Converted amounts (≈) assume the structure as drawn. One block for each molecule: values may come before it.
How the values were obtained:
Glutamyl aminopeptidase = target: T1, Glutamyl aminopeptidase (Mus musculus, UniProt P16406); assay: Inhibition of recombinant mouse aminopeptidase A activity
T1 sequence (P16406 whole entry): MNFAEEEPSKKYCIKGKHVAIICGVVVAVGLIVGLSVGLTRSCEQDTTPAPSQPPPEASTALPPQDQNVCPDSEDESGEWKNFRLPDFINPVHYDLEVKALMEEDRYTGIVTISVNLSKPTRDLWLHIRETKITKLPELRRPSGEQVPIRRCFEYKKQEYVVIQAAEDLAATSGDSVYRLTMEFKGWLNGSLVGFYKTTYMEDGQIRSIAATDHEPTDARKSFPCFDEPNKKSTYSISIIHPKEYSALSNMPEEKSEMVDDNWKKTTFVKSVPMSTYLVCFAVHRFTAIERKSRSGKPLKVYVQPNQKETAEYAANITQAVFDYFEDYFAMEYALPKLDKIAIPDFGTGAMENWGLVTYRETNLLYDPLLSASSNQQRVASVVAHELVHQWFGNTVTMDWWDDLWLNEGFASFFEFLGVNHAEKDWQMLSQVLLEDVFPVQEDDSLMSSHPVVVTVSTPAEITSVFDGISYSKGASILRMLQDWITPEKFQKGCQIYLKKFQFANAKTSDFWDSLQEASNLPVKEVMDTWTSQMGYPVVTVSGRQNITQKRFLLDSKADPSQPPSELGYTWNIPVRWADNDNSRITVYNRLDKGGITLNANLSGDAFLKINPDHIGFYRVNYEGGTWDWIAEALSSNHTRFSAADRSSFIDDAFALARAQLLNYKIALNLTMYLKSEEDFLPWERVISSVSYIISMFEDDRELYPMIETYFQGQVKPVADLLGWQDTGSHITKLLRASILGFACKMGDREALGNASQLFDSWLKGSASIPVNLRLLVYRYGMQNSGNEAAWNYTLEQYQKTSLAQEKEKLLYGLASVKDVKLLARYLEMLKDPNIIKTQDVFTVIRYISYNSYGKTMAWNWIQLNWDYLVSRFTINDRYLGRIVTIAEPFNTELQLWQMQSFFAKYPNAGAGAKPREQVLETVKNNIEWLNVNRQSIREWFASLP

[1] = Inhibition of rabbit kidney aminopeptidase A using GluNA as substrate incubated for 1 hrs by absorbance based assay
[2] = Inhibition of APA (unknown origin)
Aminopeptidase N = Aminopeptidase N (Homo sapiens, UniProt P15144); assay: Inhibition of APN (unknown origin)
Chain of Aminopeptidase N (P15144 whole entry): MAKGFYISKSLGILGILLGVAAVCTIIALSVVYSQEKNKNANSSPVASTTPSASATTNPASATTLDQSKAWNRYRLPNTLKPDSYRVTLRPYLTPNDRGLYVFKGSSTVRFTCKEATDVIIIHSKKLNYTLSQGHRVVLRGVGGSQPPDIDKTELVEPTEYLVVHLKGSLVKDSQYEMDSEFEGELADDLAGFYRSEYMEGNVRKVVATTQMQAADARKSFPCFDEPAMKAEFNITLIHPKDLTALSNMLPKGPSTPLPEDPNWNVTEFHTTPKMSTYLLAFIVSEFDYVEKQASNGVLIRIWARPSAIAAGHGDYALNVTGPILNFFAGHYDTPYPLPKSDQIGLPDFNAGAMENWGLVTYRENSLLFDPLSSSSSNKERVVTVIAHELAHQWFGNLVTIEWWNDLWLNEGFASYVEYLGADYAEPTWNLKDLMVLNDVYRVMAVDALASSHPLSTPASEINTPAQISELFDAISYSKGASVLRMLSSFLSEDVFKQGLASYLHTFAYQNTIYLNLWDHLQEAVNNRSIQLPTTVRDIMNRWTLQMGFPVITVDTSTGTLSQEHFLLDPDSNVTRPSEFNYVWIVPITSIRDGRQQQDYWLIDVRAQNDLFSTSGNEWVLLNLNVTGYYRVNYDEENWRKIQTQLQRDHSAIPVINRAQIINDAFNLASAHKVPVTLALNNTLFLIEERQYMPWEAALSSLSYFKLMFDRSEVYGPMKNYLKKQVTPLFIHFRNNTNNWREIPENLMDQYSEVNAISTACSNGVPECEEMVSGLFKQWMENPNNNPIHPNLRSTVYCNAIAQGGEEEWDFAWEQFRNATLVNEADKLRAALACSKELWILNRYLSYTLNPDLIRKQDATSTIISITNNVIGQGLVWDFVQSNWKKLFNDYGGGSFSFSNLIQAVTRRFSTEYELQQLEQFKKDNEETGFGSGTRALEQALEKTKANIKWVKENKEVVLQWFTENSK

Cytochrome P450 2C9 = Cytochrome P450 2C9 (Homo sapiens, UniProt P11712); assay: Inhibition of CYP2C9 (unknown origin)
Chain of Cytochrome P450 2C9 (P11712 whole entry): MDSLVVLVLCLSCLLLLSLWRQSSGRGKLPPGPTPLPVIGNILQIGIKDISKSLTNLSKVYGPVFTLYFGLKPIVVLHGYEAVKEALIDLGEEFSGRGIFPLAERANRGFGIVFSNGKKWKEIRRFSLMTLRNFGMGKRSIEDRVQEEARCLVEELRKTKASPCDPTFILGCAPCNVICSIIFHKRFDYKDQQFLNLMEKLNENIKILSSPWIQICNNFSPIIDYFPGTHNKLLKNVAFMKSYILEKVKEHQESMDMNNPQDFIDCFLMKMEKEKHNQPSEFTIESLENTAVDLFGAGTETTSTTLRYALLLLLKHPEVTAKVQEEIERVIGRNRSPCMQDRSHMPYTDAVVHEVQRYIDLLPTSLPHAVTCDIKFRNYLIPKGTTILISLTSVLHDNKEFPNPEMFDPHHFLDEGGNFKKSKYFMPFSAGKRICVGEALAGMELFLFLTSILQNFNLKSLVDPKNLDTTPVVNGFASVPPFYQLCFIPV

in vivo [3] = settings: mouse, iv, 2 mg/kg
Description: AUC (0 to t) in mouse at 2 mg/kg, iv

in vivo [4] = settings: mouse
[5] = Drug concentration in Sprague-Dawley rat cerebrospinal fluid at 2 mg/kg, iv measured after 60 mins
Cytochrome P450 3A4 = Cytochrome P450 3A4 (Homo sapiens, UniProt P08684); assay: Inhibition of CYP3A4 (unknown origin)
Chain of Cytochrome P450 3A4 (P08684 whole entry): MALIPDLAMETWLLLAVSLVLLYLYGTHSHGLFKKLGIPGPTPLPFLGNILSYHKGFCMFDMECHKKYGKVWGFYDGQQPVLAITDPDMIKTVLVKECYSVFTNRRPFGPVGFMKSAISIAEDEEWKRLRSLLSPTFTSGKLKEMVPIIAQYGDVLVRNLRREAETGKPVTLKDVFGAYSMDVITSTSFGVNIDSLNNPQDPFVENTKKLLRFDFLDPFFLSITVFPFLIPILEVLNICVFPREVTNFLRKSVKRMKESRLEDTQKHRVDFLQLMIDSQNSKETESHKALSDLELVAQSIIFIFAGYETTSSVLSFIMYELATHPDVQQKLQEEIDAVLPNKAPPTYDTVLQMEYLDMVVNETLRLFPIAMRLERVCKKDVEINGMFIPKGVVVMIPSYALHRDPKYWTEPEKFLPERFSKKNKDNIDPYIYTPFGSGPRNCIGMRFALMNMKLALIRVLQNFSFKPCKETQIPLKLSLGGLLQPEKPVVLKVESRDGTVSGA

[6] = Stability in rat hepatocyte assessed as parent compound remaining measured after 1 hrs; settings: hepatocytes
Cytochrome P450 1A2 = target: T2, Cytochrome P450 1A2 (Homo sapiens, UniProt P05177); assay: Inhibition of CYP1A2 (unknown origin)
T2 sequence (P05177 whole entry): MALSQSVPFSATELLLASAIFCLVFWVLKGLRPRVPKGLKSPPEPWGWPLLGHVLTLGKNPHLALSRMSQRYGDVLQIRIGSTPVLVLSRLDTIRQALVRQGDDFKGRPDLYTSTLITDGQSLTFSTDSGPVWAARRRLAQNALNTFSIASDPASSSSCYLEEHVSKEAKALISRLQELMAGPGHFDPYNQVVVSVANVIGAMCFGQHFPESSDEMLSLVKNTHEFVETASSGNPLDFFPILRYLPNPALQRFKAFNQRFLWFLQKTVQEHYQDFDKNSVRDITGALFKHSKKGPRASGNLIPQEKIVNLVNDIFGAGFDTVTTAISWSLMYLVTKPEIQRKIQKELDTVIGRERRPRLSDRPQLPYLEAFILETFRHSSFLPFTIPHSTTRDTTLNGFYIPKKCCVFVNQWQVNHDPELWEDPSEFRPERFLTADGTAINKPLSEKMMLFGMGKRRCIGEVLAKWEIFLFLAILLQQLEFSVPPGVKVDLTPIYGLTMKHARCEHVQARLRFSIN

[7] = Apparent permeability in human Caco-2 cells
in vivo [8] = settings: mouse, po, 20 mg/kg
Description: AUC (0 to t) in mouse at 20 mg/kg, po

[9] = Drug concentration in Sprague-Dawley rat brain at 2 mg/kg, iv measured after 5 mins
[10] = Drug concentration in Sprague-Dawley rat cerebrospinal fluid at 2 mg/kg, iv measured after 5 mins
Cytochrome P450 2C19 = Cytochrome P450 2C19 (Homo sapiens, UniProt P33261); assay: Inhibition of CYP2C19 (unknown origin)
Chain of Cytochrome P450 2C19 (P33261 whole entry): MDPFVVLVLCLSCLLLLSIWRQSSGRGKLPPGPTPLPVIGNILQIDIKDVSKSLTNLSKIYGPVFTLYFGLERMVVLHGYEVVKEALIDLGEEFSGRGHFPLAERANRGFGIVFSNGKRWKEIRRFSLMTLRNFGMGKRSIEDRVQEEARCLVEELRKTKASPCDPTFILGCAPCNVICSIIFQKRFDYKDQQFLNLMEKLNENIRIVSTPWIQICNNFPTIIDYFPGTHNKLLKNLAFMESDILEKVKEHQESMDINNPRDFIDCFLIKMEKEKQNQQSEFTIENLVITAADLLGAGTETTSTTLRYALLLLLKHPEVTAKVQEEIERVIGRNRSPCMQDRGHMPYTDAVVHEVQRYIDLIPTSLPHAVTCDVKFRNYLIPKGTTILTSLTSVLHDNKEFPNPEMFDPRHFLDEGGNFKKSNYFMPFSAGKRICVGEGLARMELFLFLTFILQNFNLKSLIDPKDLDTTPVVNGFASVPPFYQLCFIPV

[11] = Stability in human hepatocyte assessed as parent compound remaining measured after 1 hrs; settings: hepatocytes
in vivo [12] = settings: Sprague-Dawley, rat, iv, 2 mg/kg
Description: Renal clearance in Sprague-Dawley rat at 2 mg/kg, iv

[13] = Half-life in Sprague-Dawley rat at 2 mg/kg, iv; settings: in vivo
in vivo [14] = settings: Sprague-Dawley, rat, iv, 2 mg/kg; remark: listed apart in the source
Description: Cmax in Sprague-Dawley rat at 2 mg/kg, iv

Cytochrome P450 2B6 = target: T3, Cytochrome P450 2B6 (Homo sapiens, UniProt P20813); assay: Inhibition of CYP2B6 (unknown origin)
T3 sequence (P20813 whole entry): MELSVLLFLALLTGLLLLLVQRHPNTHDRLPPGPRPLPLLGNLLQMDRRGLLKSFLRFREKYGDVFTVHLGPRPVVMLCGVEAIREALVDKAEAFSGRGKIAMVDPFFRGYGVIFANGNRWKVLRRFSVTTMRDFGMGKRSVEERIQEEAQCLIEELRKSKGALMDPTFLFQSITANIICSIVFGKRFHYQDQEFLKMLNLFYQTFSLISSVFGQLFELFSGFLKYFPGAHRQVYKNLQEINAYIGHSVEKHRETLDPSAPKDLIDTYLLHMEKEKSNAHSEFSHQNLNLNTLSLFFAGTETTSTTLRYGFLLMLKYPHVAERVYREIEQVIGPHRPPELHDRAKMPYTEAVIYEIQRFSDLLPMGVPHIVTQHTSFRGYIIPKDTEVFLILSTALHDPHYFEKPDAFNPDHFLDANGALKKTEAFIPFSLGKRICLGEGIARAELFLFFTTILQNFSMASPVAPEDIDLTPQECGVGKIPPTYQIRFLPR

Cytochrome P450 2D6 = Cytochrome P450 2D6 (Homo sapiens, UniProt P10635); assay: Inhibition of CYP2D6 (unknown origin)
Chain of Cytochrome P450 2D6 (P10635 whole entry): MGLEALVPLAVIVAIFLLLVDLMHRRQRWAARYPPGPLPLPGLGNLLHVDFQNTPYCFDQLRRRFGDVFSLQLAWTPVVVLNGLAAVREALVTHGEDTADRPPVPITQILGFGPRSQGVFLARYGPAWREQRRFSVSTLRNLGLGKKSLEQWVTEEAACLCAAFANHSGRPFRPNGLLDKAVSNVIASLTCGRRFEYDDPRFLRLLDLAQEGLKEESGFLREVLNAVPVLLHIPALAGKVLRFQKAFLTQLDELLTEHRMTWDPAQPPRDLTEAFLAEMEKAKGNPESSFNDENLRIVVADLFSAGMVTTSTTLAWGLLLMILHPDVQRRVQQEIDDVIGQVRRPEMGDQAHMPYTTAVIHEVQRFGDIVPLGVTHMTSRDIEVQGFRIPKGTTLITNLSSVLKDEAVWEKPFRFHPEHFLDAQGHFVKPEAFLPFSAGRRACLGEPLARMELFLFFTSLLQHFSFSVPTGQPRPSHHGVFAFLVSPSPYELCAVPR

[15] = Hepatic extraction ratio in Sprague-Dawley rat at 2 mg/kg, iv; settings: in vivo
[16] = Drug concentration in Sprague-Dawley rat brain at 2 mg/kg, iv measured after 60 mins
[17] = Solubility of compound in phosphate buffer at pH 7.4

Structure (SMILES): NC(CCC(=O)O)P(=O)(O)CCn1ncc2ccccc21 (centres undefined)
IC50 (Glutamyl aminopeptidase): 420 nM

Structure (SMILES): COc1ccc(CCP(=O)(O)C(N)CCC(=O)O)cc1 (centres undefined)
IC50 (Glutamyl aminopeptidase): 24 nM

Structure (SMILES): NC(CCC(=O)O)P(=O)(O)CCc1ccccc1-c1ccccc1 (centres undefined)
IC50 (Glutamyl aminopeptidase): 42 nM

Structure (SMILES): Cn1cc(CCP(=O)(O)C(N)CCC(=O)O)c2ccccc21 (centres undefined)
IC50 (Glutamyl aminopeptidase): 30 nM

Structure (SMILES): NC(CCC(=O)O)P(=O)(O)CCc1ccccc1OC1CCCC1 (centres undefined)
IC50 (Glutamyl aminopeptidase): 9 nM

Structure (SMILES): COc1cccc(CCP(=O)(O)C(N)CCC(=O)O)c1 (centres undefined)
IC50 (Glutamyl aminopeptidase): 28 nM

Structure (SMILES): NC(CCC(=O)O)P(=O)(O)CCc1cccc(Cl)c1 (centres undefined)
IC50 (Glutamyl aminopeptidase): 61 nM

Structure (SMILES): COc1ccccc1CCP(=O)(O)C(N)CCC(=O)O (centres undefined)
IC50 (Glutamyl aminopeptidase): 9 nM

Structure (SMILES): NC(CCC(=O)O)P(=O)(O)CCc1cccc(Cl)c1Cl (centres undefined)
IC50 (Glutamyl aminopeptidase): 26 nM

Structure (SMILES): NC(CCC(=O)O)P(=O)(O)CCc1ccccc1OC(F)(F)F (centres undefined)
IC50 (Glutamyl aminopeptidase): 26 nM

Structure (SMILES): N[C@H](CS)CCC(=O)O
Ki [1]: 140 nM

Structure (SMILES): NC(CCC(=O)O)P(=O)(O)CCc1ccccc1OC1CCCCC1 (centres undefined)
IC50 (Glutamyl aminopeptidase): 1 nM

Structure (SMILES): Cc1ccc(CCP(=O)(O)C(N)CCC(=O)O)cc1 (centres undefined)
IC50 (Glutamyl aminopeptidase): 23 nM

Structure (SMILES): NC(CCC(=O)O)P(=O)(O)CCc1ccccc1Oc1ccccc1 (centres undefined)
IC50 (Glutamyl aminopeptidase): 10 nM

Structure (SMILES): COc1ccccc1CCP(=O)(O)[C@@H](N)CCC(=O)O
IC50 (Glutamyl aminopeptidase): 4 nM
IC50 (Cytochrome P450 2C9): > 25000 nM
AUC(0-t) (in vivo [3]): 919 ng·h/mL
bioavailability (in vivo [4]): 4.1%
concentration at 1 h [5]: 115 ng/mL
IC50 (Cytochrome P450 3A4): > 25000 nM
remaining at 1 h [6]: 93%
IC50 (Cytochrome P450 1A2): > 25000 nM
Papp [7]: 0.5 ×10⁻⁶ cm/s
AUC(0-t) (in vivo [8]): 37.6 ng·h/mL
concentration at 5 min [9]: 50.2 ng/g
concentration at 5 min [10]: 281 ng/mL
IC50 (Cytochrome P450 2C19): > 25000 nM
remaining at 1 h [11]: 99%
CL renal (in vivo [12]): 0.6 mL/min
half-life [13]: ~30 min
Cmax (in vivo [14]): 4920 ng/mL
IC50 (Cytochrome P450 2B6): > 25000 nM
IC50 (Aminopeptidase N): > 20000 nM
IC50 (Cytochrome P450 2D6): > 25000 nM
hepatic extraction ratio [15]: ~0.45
concentration at 1 h [16]: 15.6 ng/g
solubility [17]: 165 µM (≈ 49.7 µg/mL)

Structure (SMILES): NC(CCC(=O)O)P(=O)(O)CCC1CCCCC1 (centres undefined)
IC50 (Glutamyl aminopeptidase): 41 nM

Structure (SMILES): COc1c(Cl)cccc1CCP(=O)(O)C(N)CCC(=O)O (centres undefined)
IC50 (Glutamyl aminopeptidase): 54 nM

Structure (SMILES): NC(CCC(=O)O)P(=O)(O)CCc1ccc2ccccc2c1 (centres undefined)
IC50 (Glutamyl aminopeptidase): 21 nM

Structure (SMILES): Cc1cccc(CCP(=O)(O)C(N)CCC(=O)O)c1 (centres undefined)
IC50 (Glutamyl aminopeptidase): 27 nM

Next, values leading:

IC50 (Glutamyl aminopeptidase): 930 nM
Structure (SMILES): NC(CCCC(=O)O)P(=O)(O)CCc1ccccc1 (racemic)

IC50 (Glutamyl aminopeptidase): 18 nM
Structure (SMILES): Cc1ccccc1CCP(=O)(O)C(N)CCC(=O)O (centres undefined)

IC50 (Glutamyl aminopeptidase): 310 nM
Structure (SMILES): NC(CCS(=O)(=O)O)P(=O)(O)CCc1ccccc1 (racemic)

IC50 (Glutamyl aminopeptidase): 21 nM
Structure (SMILES): NC(CCC(=O)O)P(=O)(O)CCc1ccccc1Cl (centres undefined)

IC50 (Glutamyl aminopeptidase): 5400 nM
Structure (SMILES): NC(CCP(=O)(O)O)P(=O)(O)CCc1ccccc1 (racemic)

IC50 (Glutamyl aminopeptidase): 39 nM
Structure (SMILES): NC(CCC(=O)O)P(=O)(O)Cc1ccccc1 (racemic)

IC50 (Glutamyl aminopeptidase): 10 nM
Structure (SMILES): N[C@@H](CCC(=O)O)P(=O)(O)CCc1ccccc1

IC50 (Glutamyl aminopeptidase): 660 nM
Structure (SMILES): N[C@H](CCC(=O)O)P(=O)(O)CCc1ccccc1

IC50 (Glutamyl aminopeptidase): 54 nM
Structure (SMILES): NC(CCC(=O)O)P(=O)(O)CCCc1ccccc1 (racemic)

IC50 (Glutamyl aminopeptidase): 7 nM
Structure (SMILES): NC(CCC(=O)O)P(=O)(O)CCc1cccc2ccccc12 (centres undefined)

Ki [2]: 30 nM
Ki (Aminopeptidase N): > 10000 nM
Structure (SMILES): N[C@@H](CCS(=O)(=O)O)[C@@H](S)CCc1ccccc1

IC50 (Glutamyl aminopeptidase): 29 nM
Structure (SMILES): NC(CCC(=O)O)P(=O)(O)CCc1ccccc1 (racemic)

— ChEMBL document CHEMBL6074628, “Rational design, synthesis and pharmacological characterization of novel aminopeptidase A inhibitors” (Bioorg Med Chem Lett, 2024)
